Test results published in patent publication US20080044436A1, “Method for Screening and Compositions for Treating Cancers” (priority 2004, published 2008).

Columns and labels:
p21 promoter = test: Luciferase reporter assay in T47-D cells, p21 promoter; assay type: cell-based, human; conditions: 30 nM progesterone for 34 hours or TReP-132 expression vector
Procedure: (§1) FIGS. 14A and 14B: T47-D cells were cotransfected with reporter constructs containing the p21 (FIG. 14A) or p27 (FIG. 14B) promoter. Twelve hours post-transfection, the cells were incubated with 30 nM progesterone or ethanol for 34 hours. The cell lysates were then assayed for luciferase activity. Luciferase activity of the −93p21 Luc and −549p27 Luc constructs represent level 1. Arrows indicate transcription initiation sites.
(§2) The pGL2 and pGL3 reporter constructs (100 ng) were cotransfected with the indicated amounts of expression vectors and 10 ng of the control plasmid pRL.Null. The amount of plasmid was then normalized with the empty vector pcDNA3. After 12 hours of transfection, the medium was changed and cells were incubated for an additional 10 and 34 hours, respectively. During this period, T47-D cells were cultured in the presence and absence of progesterone (30 nM). The cells were then harvested and cell lysates (20 μl) were assayed for luciferase activity (Dual Luciférase™ Reporter Assay System, Promega, Madison, Wis., USA) in a Berthold LUMAT LB9501 luminometer. The transfections were performed in triplicate and each experiment was repeated at least three times.

p27 promoter = test: Luciferase reporter assay in T47-D cells, p27 promoter; assay type: cell-based, human; conditions: 30 nM progesterone for 34 hours or TReP-132 expression vector
Procedure: as §1, §2

Molecule	p21 promoter activation (p21 promoter)	p27 promoter activation (p27 promoter)
CC(=O)[C@H]1CC[C@H]2[C@@H]3CCC4=CC(=O)CC[C@]4(C)[C@H]3CC[C@]12C [progesterone, reference compound]	activated the two promoters	activated the two promoters
TReP-132: Transcriptional Regulating Protein of 132 kDa, polypeptide comprising SEQ ID NO: 2; here expressed in cells from vectors (protein) MGDQQLYKTNHVAHGSENLFYQQPPLGVHSGLNHNYGNAVTGGGMDAPQASPISPHFPQDTRDGLGLPVGSKNLGQMDTSRQGGWGSHAGPGNHVQLRGNLANSNMMWGAPAQAEPTDGYQYTYSQASEIRTQKLTSGVLHKLDSFTQVFANQNLRIQVNNMAQVLHTQSAVMDGAPDSALRQLLSQKPMEPPAPAIPSRYQQVPQQPHPGFTGGLSKPALQVGQHPTQGHLYYDYQQPLAQVPVQGGQPLQAPQMLSQHMQQMQQHQYYPPQQQQQAGQQRISMQEIQTQPQQIRPSQPQPPPQQQQPQQLQLQQRQGSMQIPQYYQPQPMMQHLQEQQQQQMHLQPPSYHRDPHQYTPEQAHTVQLIPLGSMSQYYYQEPQQPYSHPLYQQSHLSQHQQREDSQLKTYSSDRQAQAMLSSHGDLGPPDTGMGDPASSDLTRVSSTLPHRPLLSPSGIHLNNMGPQHQQLSPSAMWPQMHLPDGRAQPGSPESSGQPKGAFGEQFDAKNKLTCSICLKEFKNLPALNGHMRSHGGMRASPNLKQEEGEKVLPPQPQPPLPPPPPPPPPPQLPPEAESLTPMVMPVSVPVKLLPPKPSSQGFTNSTVAAPSARDKPASSMSDDEMPVLEIPRKHQPSVPKAEEPLKTVQEKKKFRHRPEPLFIPPPPSYNPNPAASYSGATLYQSQLRSPRVLGDHLLLDPTHELPPYTPPPMLSPVRQGSGLFSNVLISGHGPGAHPQLPLTPLTPTPRVLLCRSNSIDGSNVTVTPGPGEQTVDVEPRINIGLRFQAEIPELQDISALAQDTHKATLVWKPWPELENHDLQQRVENLLNLCCSSALPGGGTNSEFALHSLFEAKGDVMVALEMLLLRKPVRLKCHPLANYHYAGSDKWTSLERKLFNKALATYSKDFIFVQKMVKSKTVAQCVEYYYTWKKIMRLGRKHRTRLAEIIDDCVTSEEEEELEEEEEEDPEEDRKSTKEEESEVPKSPEPPPVPVLAPTEGPPLQALGQPSGSFICEMPNCGAVFSSRQALNGHARIHGGTNQVTKARGAIPSGKQKPGGTQSGYCSVKSSPSHSTTSGETDPTTIFPCKECGKVFFKIKSRNAHMKTHRQQEEQQRQKAQKAAFAAEMAATIERTTGPVGAPGLLPLDQLSLIKPIKDVDILDDDVVQQLGGVMEEAEVVDTDLLLDDQDSVLLQGDAEL	activated the two promoters	activated the two promoters
